Here are results for one molecule from paper PMC3146629 (2011).

The target in this assay is HSPA8 (Hsc70) (Bos taurus, UniProt P19120). In words: […]-1H TROSY NMR titration. Format: binding.

The structures appear in SMILES notation. pKd: −log10 of the molar value.

Chain of HSPA8 (Hsc70) (P19120 1-383): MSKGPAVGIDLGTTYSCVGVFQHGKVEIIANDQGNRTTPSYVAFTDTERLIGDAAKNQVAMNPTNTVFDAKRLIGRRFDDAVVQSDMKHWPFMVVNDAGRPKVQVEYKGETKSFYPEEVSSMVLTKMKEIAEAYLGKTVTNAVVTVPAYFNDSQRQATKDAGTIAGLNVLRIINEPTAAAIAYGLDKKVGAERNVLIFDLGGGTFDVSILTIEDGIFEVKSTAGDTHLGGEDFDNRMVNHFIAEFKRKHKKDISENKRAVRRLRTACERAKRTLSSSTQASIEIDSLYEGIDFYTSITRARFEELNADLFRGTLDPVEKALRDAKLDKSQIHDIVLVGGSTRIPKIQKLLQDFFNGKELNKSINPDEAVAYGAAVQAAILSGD

`CCn1c(=Cc2cccc[n+]2CC)sc(=C2Sc3ccccc3N2C)c1=O` [MKT-077, 1-ethyl-2-[[3-ethyl-5-(3-methylbenzothiazolin-2-yliden)]-4-oxothiazolidin-2-ylidenemethyl] pyridinium chloride] gave a pKd greater than 5.00.

One may read the pKd as the Kd on a negative log10 scale, so that one unit is a factor of ten. A higher pKd goes with a small Kd.
